According to patent publication US20220142995A1, “DUAL ATM AND DNA-PK INHIBITORS FOR USE IN ANTI-TUMOR THERAPY” (XRAD Therapeutics, Inc., priority 2019, published 2022):

Test system: ATM and DNA-PK kinases
Test: Immunoblot of radiation-induced phosphorylation of ATM, DNA-PKcs and KAP1 in MCF7 cells
Assay type: cell-based, human
Settings: MCF7 cells, 20, 100, 500, 1000 nM, 30 min pre-treatment, 10 Gy, harvested 1 h later
Procedure: Cell Culture. The MCF-7 human breast carcinoma cell line and HCT116 p53 wild-type and HCT116 p53−/− cell lines were obtained from ATCC. […]
Immunoblotting. […] One hour after IR, cells were lysed in RIPA buffer ([…], pH 8.0, 150 mM NaCl, 0.1% SDS, 0.5% sodium deoxycholate, 1% IGEPAL® CA-630 (Sigma, 18896) for 20 min at 4° C. in the presence of protease and phosphatase inhibitor cocktails (Roche, #04693159001 & #04906837001). Cell lysates were centrifuged at 13,200 g for 10 min at 4° C. and supernatants were analyzed for protein content using BCA assay (Pierce™ BCA Protein Assay Kit, cat #23227, ThermoFisher Waltham, Mass. 02451) and equal amounts of protein/lane were used for subsequent immunoblot analyses. Proteins were denatured by adding NuPAGE LSD Sample Buffer [4×] […]

## CC(C)NCCOc1ncc(-c2cc3c4c(cnc3cc2F)N(C)C(=O)C42CCC2)cc1NS(C)(=O)=O [Compound 569, N-(5-(7′-Fluoro-3′-methyl-2′-oxo-2′,3′-dihydrospiro[cyclobutane-1,1′-pyrrolo[2,3-c]quinolin]-8′-yl)-2-(2-(isopropylamino)ethoxy)pyridin-3-yl)methanesulfonamide]
  inhibition of radiation-induced phosphorylation of DNA-PKcs Ser2056, ATM Ser1981 and KAP1 ser824: potent dose-dependent inhibition
